Values belong to the compound of their own block, whether it stands above or below them. Calls of active or inactive are those of the source. The rule behind the calls is not given here.
What was measured:
[1] = system: DOHH-2; experiment: Cytotoxicity against human DOHH-2 cells up to 20 uM measured after 24 hrs; assay type: functional, cell-based
[2] = system: DOHH-2; experiment: Up regulation of HSP90alpha expression in human DOHH-2 cells at 10 uM measured after 4 to 24 hrs by Western blot analysis; assay type: functional, cell-based; details: time 4-24 hrs
[3] = system: DOHH-2; experiment: Induction of apoptosis in human DOHH-2 cells assessed as increase in cleaved caspase-3 expression at 0.5 to 10 uM measured after 24 hrs by Western blot analysis; assay type: functional, cell-based; details: dose 0.5-10 µM
[4] = organism: Homo sapiens; experiment: Binding affinity to ADP-bound full-length human HSP70 assessed as Cys603 adduct formation by size exclusion chromatography
[5] = system: HepG2; experiment: Cytotoxicity against human HepG2 cells measured after 72 hrs; assay type: functional, cell-based
[6] = system: Jurkat; experiment: Cytotoxicity against human Jurkat T cells measured after 72 hrs; assay type: functional, cell-based
[7] = system: DOHH-2; experiment: Up regulation of HSP70 expression in human DOHH-2 cells at 10 uM measured after 4 to 24 hrs by Western blot analysis; assay type: functional, cell-based; details: time 4-24 hrs
[8] = system: HEK-293T; experiment: Cytotoxicity against HEK293T cells up to 20 uM measured after 24 hrs; assay type: toxicity, cell-based; details: human
[9] = system: DOHH-2; experiment: Induction of autophagy in human DOHH-2 cells assessed as change in transformation of LC3B1 to LC3B2 expression at 0.5 to 10 uM measured after 24 hrs by Western blot analysis; assay type: functional, cell-based; details: dose 0.5-10 µM
[10] = system: DOHH-2; experiment: Induction of autophagy in human DOHH-2 cells assessed as change in transformation of LC3B1 to LC3B2 expression at 10 uM measured after 4 to 24 hrs by Western blot analysis; assay type: functional, cell-based; details: time 4-24 hrs
[11] = system: DOHH-2; experiment: Induction of apoptosis in human DOHH-2 cells assessed as increase in cleaved caspase-3 expression at 10 uM measured after 4 to 24 hrs by Western blot analysis; assay type: functional, cell-based; details: time 4-24 hrs
[12] = system: DOHH-2; experiment: Induction of apoptosis in human DOHH-2 cells assessed as increase in cleaved PARP expression at 10 uM measured after 4 to 24 hrs by Western blot analysis; assay type: functional, cell-based; details: time 4-24 hrs
[13] = system: DOHH-2; experiment: Up regulation of HSP90alpha expression in human DOHH-2 cells at 0.5 to 10 uM measured after 24 hrs by Western blot analysis; assay type: functional, cell-based; details: dose 0.5-10 µM
[14] = organism: Homo sapiens; experiment: Binding affinity to human HSP70 SBDalpha domain (537 to 610 residues) C574S mutant assessed as Cys603 adduct formation by size exclusion chromatography
[15] = system: DOHH-2; experiment: Cytotoxicity against human DOHH-2 cells measured after 72 hrs; assay type: functional, cell-based
[16] = organism: Homo sapiens; experiment: Binding affinity to ADP-bound full-length human HSP70 assessed as cysteine adduct formation at SBDalpha domain by measuring half life at 1 mM by fluorescence spectra analysis
[17] = system: MDA-MB-453; experiment: Cytotoxicity against human MDA-MB-453 cells measured after 72 hrs; assay type: functional, cell-based
[18] = GSH reactivity in pH 7.4 buffer assessed as GSH adduct formation by measuring half life at 50 uM by near-UV absorbance spectra analysis; assay type: physicochemical; details: pH 7.4, 50 µM
[19] = system: DOHH-2; experiment: Up regulation of HSP70 expression in human DOHH-2 cells at 0.5 to 10 uM measured after 24 hrs by Western blot analysis; assay type: functional, cell-based; details: dose 0.5-10 µM
[20] = system: DOHH-2; experiment: Induction of autophagy in human DOHH-2 cells assessed as reduction in p62 expression at 10 uM measured after 4 to 24 hrs by Western blot analysis; assay type: functional, cell-based; details: time 4-24 hrs
[21] = system: DOHH-2; experiment: Induction of autophagy in human DOHH-2 cells assessed as reduction in p62 expression at 0.5 to 10 uM measured after 24 hrs by Western blot analysis; assay type: functional, cell-based; details: dose 0.5-10 µM
[22] = system: DOHH-2; experiment: Induction of apoptosis in human DOHH-2 cells assessed as increase in cleaved PARP expression at 0.5 to 10 uM measured after 24 hrs by Western blot analysis; assay type: functional, cell-based; details: dose 0.5-10 µM
[23] = system: Jurkat; experiment: Cytotoxicity against human Jurkat T cells up to 20 uM measured after 24 hrs; assay type: functional, cell-based
[24] = GSH reactivity in pH 7.4 buffer assessed as GSH adduct formation by measuring molecular weight at 1 mM by Q-TOF LC/MS analysis; assay type: physicochemical; details: pH 7.4, 1000 µM
[25] = system: DOHH-2; experiment: Induction of autophagy in human DOHH-2 cells assessed as reduction in p62 expression at 12 uM measured after 4 to 24 hrs by Western blot analysis; assay type: functional, cell-based; details: time 4-24 hrs
[26] = system: DOHH-2; experiment: Induction of apoptosis in human DOHH-2 cells assessed as increase in cleaved PARP expression at 12 uM measured after 4 to 24 hrs by Western blot analysis; assay type: functional, cell-based; details: time 4-24 hrs
[27] = system: DOHH-2; experiment: Induction of autophagy in human DOHH-2 cells assessed as reduction in p62 expression at 0.5 to 12 uM measured after 24 hrs by Western blot analysis; assay type: functional, cell-based; details: dose 0.5-12 µM
[28] = GSH reactivity in pH 7.4 buffer assessed as GSH adduct formation at 1 mM by HPLC analysis; assay type: physicochemical; details: pH 7.4, 1000 µM
[29] = system: DOHH-2; experiment: Up regulation of HSP70 expression in human DOHH-2 cells at 12 uM measured after 4 to 24 hrs by Western blot analysis; assay type: functional, cell-based; details: time 4-24 hrs
[30] = system: DOHH-2; experiment: Induction of autophagy in human DOHH-2 cells assessed as change in transformation of LC3B1 to LC3B2 expression at 12 uM measured after 4 to 24 hrs by Western blot analysis; assay type: functional, cell-based; details: time 4-24 hrs
[31] = system: DOHH-2; experiment: Up regulation of HSP90alpha expression in human DOHH-2 cells at 12 uM measured after 4 to 24 hrs by Western blot analysis; assay type: functional, cell-based; details: time 4-24 hrs
[32] = system: DOHH-2; experiment: Induction of apoptosis in human DOHH-2 cells assessed as increase in cleaved PARP expression at 0.5 to 12 uM measured after 24 hrs by Western blot analysis; assay type: functional, cell-based; details: dose 0.5-12 µM
[33] = system: DOHH-2; experiment: Induction of apoptosis in human DOHH-2 cells assessed as increase in cleaved caspase-3 expression at 12 uM measured after 4 to 24 hrs by Western blot analysis; assay type: functional, cell-based; details: time 4-24 hrs
[34] = system: DOHH-2; experiment: Induction of autophagy in human DOHH-2 cells assessed as change in transformation of LC3B1 to LC3B2 expression at 0.5 to 12 uM measured after 24 hrs by Western blot analysis; assay type: functional, cell-based; details: dose 0.5-12 µM
[35] = system: DOHH-2; experiment: Up regulation of HSP90alpha expression in human DOHH-2 cells at 0.5 to 12 uM measured after 24 hrs by Western blot analysis; assay type: functional, cell-based; details: dose 0.5-12 µM
[36] = system: DOHH-2; experiment: Induction of apoptosis in human DOHH-2 cells assessed as increase in cleaved caspase-3 expression at 0.5 to 12 uM measured after 24 hrs by Western blot analysis; assay type: functional, cell-based; details: dose 0.5-12 µM
[37] = system: DOHH-2; experiment: Up regulation of HSP70 expression in human DOHH-2 cells at 0.5 to 12 uM measured after 24 hrs by Western blot analysis; assay type: functional, cell-based; details: dose 0.5-12 µM

Activity [4]: Active
Activity [14]: Active
T1/2 [16]: 0.998 h
t1/2 [18]: 2.97 min
Structure (SMILES): NS(=O)(=O)C#Cc1cccc(Cl)c1
Activity [1]: Active
Activity [2]: Active
Activity [3]: Active
Activity [5]: Active
Activity [6]: Active
Activity [7]: Active
Activity [8]: Non-Toxic
Activity [9]: Active
Activity [10]: Active
Activity [11]: Active
Activity [12]: Active
Activity [13]: Active
Activity [15]: Active
Activity [17]: Active
Activity [19]: Active
Activity [20]: Active
Activity [21]: Active
Activity [22]: Active
Activity [23]: Active

Activity [24]: 489 Da
Activity [4]: Active
Activity [28]: Active
Activity [14]: Active
T1/2 [16]: 4.53 h
t1/2 [18]: 12.26 min
Structure (SMILES): NS(=O)(=O)C#Cc1ccccc1
Activity [1]: Active
Activity [25]: Active
Activity [26]: Active
Activity [5]: Active
Activity [6]: Active
Activity [8]: Non-Toxic
Activity [27]: Active
Activity [29]: Active
Activity [30]: Active
Activity [15]: Active
Activity [31]: Active
Activity [17]: Active
Activity [32]: Active
Activity [33]: Active
Activity [34]: Active
Activity [35]: Active
Activity [23]: Active
Activity [36]: Active
Activity [37]: Active

— ChEMBL document CHEMBL5143564, “PES derivative PESA is a potent tool to globally profile cellular targets of PES” (Bioorg Med Chem Lett, 2022)
